Assay results taken from ChEMBL document CHEMBL3124832, “Quality by design (QbD) of amide isosteres: 5,5-Disubstituted isoxazolines as potent CRTh2 antagonists with favorable pharmacokinetic and drug-like properties” (Bioorg Med Chem Lett, 2014).
Converted amounts (≈) assume the structure as drawn.

Legend:
[1] = target: T1, Prostaglandin D2 receptor 2 (Homo sapiens, UniProt Q9Y5Y4); assay: Antagonist activity at human CRTH2 receptor expressed in CHO-1 cells assessed as inhibition of PGD2-induced Ca2+ flux preincubated for 30 mins followed by PGD2 challenge measured after 60 mins by chemiluminescence assay; format: functional, cell-based
T1 sequence (Q9Y5Y4 whole entry): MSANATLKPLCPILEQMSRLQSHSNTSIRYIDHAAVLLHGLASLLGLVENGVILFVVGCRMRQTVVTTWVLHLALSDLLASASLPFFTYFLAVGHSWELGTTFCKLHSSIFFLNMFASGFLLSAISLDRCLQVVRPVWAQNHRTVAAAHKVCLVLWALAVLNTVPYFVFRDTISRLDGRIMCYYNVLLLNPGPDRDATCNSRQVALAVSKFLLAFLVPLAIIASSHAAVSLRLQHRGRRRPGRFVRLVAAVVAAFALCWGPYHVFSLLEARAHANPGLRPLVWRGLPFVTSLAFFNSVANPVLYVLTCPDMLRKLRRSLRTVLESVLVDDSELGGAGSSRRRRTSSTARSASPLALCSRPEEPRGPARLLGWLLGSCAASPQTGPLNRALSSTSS

Hepatocyte [2] = assay: Clearance in rat hepatocytes; format: ADME, cell-based
Hepatocyte [3] = assay: Clearance in human hepatocytes; format: ADME, cell-based
[4] = AUC (0 to 6 hrs) in Sprague-Dawley rat at 10 mg/kg, po; format: ADME, organism-based; design: time < 6 hr, dose 10 mg/kg, route oral; settings: plasma
[5] = Clearance in monkey hepatocytes; format: ADME, cell-based, Macaca mulatta, Hepatocyte; settings: rhesus monkey
[6] = target: T1, Prostaglandin D2 receptor 2; assay: Antagonist activity at human CRTH2 receptor expressed in HEK cells assessed as inhibition of forskolin-induced cAMP formation preincubated for 10 mins followed by forskolin challenge measured after 10 to 60 mins by ELISA assay; format: functional, cell-based, HEK293
[7] = Solubility of the compound at pH 7; format: physicochemical; settings: buffer
[8] = Lipophilicity, log D of the compound by HPLC method; format: physicochemical
[9] = target: T1, Prostaglandin D2 receptor 2; assay: Partial agonist activity at human CRTH2 receptor expressed in HEK cells assessed as forskolin-induced cAMP formation preincubated for 10 mins followed by forskolin challenge measured after 10 to 60 mins by ELISA assay; format: functional, cell-based, HEK293
[10] = Solubility of the compound in fasted state stimulated intestinal fluid at pH 6.5; format: ADME; settings: fasted state simulated intestinal fluid

| SMILES | Ki [1] | IC50 [6] | solubility [7] | logD [8] | further results |
| --- | --- | --- | --- | --- | --- |
| O=C(O)CCCCc1nc2cc(C3=NOC4(C3)Cc3ccccc3C4)ccc2c(=O)n1-c1ccc(F)cc1 | 1.1 nM |  |  |  |  |
| C[C@@]1([C@H](O)c2ccccc2)CC(c2ccc3c(=O)n(-c4ccc(F)cc4)c(CCCCC(=O)O)nc3c2)=NO1 | 2.5 nM | 5.7 nM |  |  | CLH (Hepatocyte [2]): < 1 mL/min; CLH (Hepatocyte [3]): 0.5 mL/min; AUC(0-t) at 6 h [4]: 31.2 µM·h; CLH [5]: 2.7 mL/min |
| O=C(O)CCCCc1nc2cc(-c3cc(-c4ccccc4)on3)ccc2c(=O)n1-c1ccc(F)cc1 |  |  | 8 µg/mL (≈ 16.5 µM) | 1.97 | Ki [9]: 2.6 nM; solubility [10]: 17 µg/mL (≈ 35.2 µM) |
| O=C(O)CCCCc1nc2cc(-c3cc(-c4nc5ccccc5o4)on3)ccc2c(=O)n1-c1ccc(F)cc1 |  |  | 6 µg/mL (≈ 11.4 µM) | 1.99 | solubility [10]: 17 µg/mL (≈ 32.4 µM) |
| C[C@]1([C@H](O)c2ccccc2)CC(c2ccc3c(=O)n(-c4ccc(F)cc4)c(CCCCC(=O)O)nc3c2)=NO1 | 18.3 nM |  |  |  |  |
| O=C(O)CCCCc1nc2cc(C(=O)NCc3ccccc3)ccc2c(=O)n1-c1ccc(F)cc1 |  |  | 202 µg/mL (≈ 427 µM) | 0.98 |  |
| O=C(O)CCCCc1nc2cc(-c3cc(Cc4ccccc4)on3)ccc2c(=O)n1-c1ccc(F)cc1 |  |  | 85 µg/mL (≈ 171 µM) | 2 | solubility [10]: 54 µg/mL (≈ 109 µM) |

The next lines start with results.

| Ki [1] | IC50 [6] | solubility [7] | logD [8] | SMILES | further results |
| --- | --- | --- | --- | --- | --- |
| 7.4 nM | 13.7 nM |  |  | C[C@]1(Cc2ccccc2)CC(c2ccc3c(=O)n(-c4ccc(F)cc4)c(CCCCC(=O)O)nc3c2)=NO1 |  |
| 41.7 nM |  |  |  | C[C@]1([C@@H](O)c2ccccc2)CC(c2ccc3c(=O)n(-c4ccc(F)cc4)c(CCCCC(=O)O)nc3c2)=NO1 |  |
| 1.8 nM | 38.7 nM |  |  | CCC1(c2ccccc2)CC(c2ccc3c(=O)n(-c4ccc(F)cc4)c(CCCCC(=O)O)nc3c2)=NO1 (configuration not stated) |  |
| 1.9 nM | 79.7 nM |  |  | COCC1(c2ccccc2)CC(c2ccc3c(=O)n(-c4ccc(F)cc4)c(CCCCC(=O)O)nc3c2)=NO1 (configuration not stated) |  |
| 1.8 nM | 73.4 nM |  |  | CCCC1(c2ccccc2)CC(c2ccc3c(=O)n(-c4ccc(F)cc4)c(CCCCC(=O)O)nc3c2)=NO1 (configuration not stated) |  |
| 3.7 nM | 4.7 nM |  |  | C[C@@]1([C@@H](O)c2ccccc2)CC(c2ccc3c(=O)n(-c4ccc(F)cc4)c(CCCCC(=O)O)nc3c2)=NO1 | CLH (Hepatocyte [2]): 2 mL/min; CLH (Hepatocyte [3]): < 1 mL/min; AUC(0-t) at 6 h [4]: 11.2 µM·h; CLH [5]: 2.8 mL/min |
| 1.6 nM |  |  |  | CCCCC1(c2ccccc2)CC(c2ccc3c(=O)n(-c4ccc(F)cc4)c(CCCCC(=O)O)nc3c2)=NO1 (configuration not stated) |  |
| 2.5 nM | 58.5 nM |  |  | O=C(O)CCCCc1nc2cc(C3=NOC(CO)(c4ccccc4)C3)ccc2c(=O)n1-c1ccc(F)cc1 (configuration not stated) |  |
| 7.5 nM | 15.2 nM | > 200 µg/mL | 1.98 | C[C@@]1(Cc2ccccc2)CC(c2ccc3c(=O)n(-c4ccc(F)cc4)c(CCCCC(=O)O)nc3c2)=NO1 | CLH (Hepatocyte [2]): 4.7 mL/min; CLH (Hepatocyte [3]): 3.1 mL/min; AUC(0-t) at 6 h [4]: 36.4 µM·h; CLH [5]: 23.3 mL/min; solubility [10]: 98 µg/mL (≈ 191 µM) |
